Data taken from ChEMBL document CHEMBL3813695, “Assessment of the anti-metastatic properties of sanguiin H-6 in HUVECs and MDA-MB-231 human breast cancer cells” (Bioorg Med Chem Lett, 2016).
Active and inactive are the calls of the source. No cut-off for these calls is given here.

Assays:
MDA-MB-231 [1] = assay: Decrease in VEGF expression in human MDA-MB-231 cells after 24 hrs by western blotting method; format: functional, cell-based
MDA-MB-231 [2] = assay: Cytotoxicity against human MDA-MB-231 cells assessed as decrease in cell viability at 6.25 to 25 uM after 24 hrs by MTT assay; format: functional, cell-based
[3] = target: Mitogen-activated protein kinase; ERK1/ERK2 (Homo sapiens) (UniProt P27361+P28482); assay: Decrease in phosphorylated ERK1/2 level in human MDA-MB-231 cells after 24 hrs by western blotting method; format: cell-based
Mitogen-activated protein kinase; ERK1/ERK2 (Homo sapiens), sequence (P27361 whole entry, looked up): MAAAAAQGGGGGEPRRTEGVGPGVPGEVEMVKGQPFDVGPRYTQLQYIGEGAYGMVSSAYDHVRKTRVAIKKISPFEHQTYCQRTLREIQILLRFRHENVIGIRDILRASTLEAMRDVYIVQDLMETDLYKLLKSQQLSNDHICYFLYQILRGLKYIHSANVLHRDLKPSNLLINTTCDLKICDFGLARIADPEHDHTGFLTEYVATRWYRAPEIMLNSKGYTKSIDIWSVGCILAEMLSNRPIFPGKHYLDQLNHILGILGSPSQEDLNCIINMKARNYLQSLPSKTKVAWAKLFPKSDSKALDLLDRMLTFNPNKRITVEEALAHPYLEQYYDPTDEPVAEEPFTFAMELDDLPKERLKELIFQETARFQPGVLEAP
Mitogen-activated protein kinase; ERK1/ERK2 (Homo sapiens), sequence (P28482 whole entry, looked up): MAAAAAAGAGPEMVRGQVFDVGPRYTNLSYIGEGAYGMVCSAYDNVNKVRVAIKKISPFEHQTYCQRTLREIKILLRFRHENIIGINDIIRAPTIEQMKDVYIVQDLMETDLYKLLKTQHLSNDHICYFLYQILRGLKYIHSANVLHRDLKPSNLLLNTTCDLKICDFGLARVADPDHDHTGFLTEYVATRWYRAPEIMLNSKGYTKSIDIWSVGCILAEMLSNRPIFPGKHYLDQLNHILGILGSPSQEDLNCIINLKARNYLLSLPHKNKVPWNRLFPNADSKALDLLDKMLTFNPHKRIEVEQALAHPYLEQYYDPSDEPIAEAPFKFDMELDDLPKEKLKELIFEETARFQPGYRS

HUVEC [4] = assay: Cytotoxicity against HUVEC assessed as inhibition of cell proliferation after 24 hrs by MTT assay; format: cell-based; settings: human
HUVEC [5] = assay: Antimigratory activity against HUVEC at 6.25 uM measured after 24 hrs by Mayers hematoxylin and eosin-Y staining based microscopic analysis relative to control; format: functional, Homo sapiens
MDA-MB-231 [6] = assay: Cytotoxicity against human MDA-MB-231 cells assessed as decrease in cell viability at 200 uM after 24 hrs by MTT assay; format: functional, cell-based
HUVEC [7] = assay: Inhibition of tube formation in HUVEC at 6.25 uM measured after 24 hrs by Mayers hematoxylin staining based light microscopic analysis relative to control; format: functional; settings: Homo sapiens
HUVEC [8] = assay: Cytotoxicity against HUVEC assessed as inhibition of cell proliferation up to 12.5 uM after 24 hrs by MTT assay; format: cell-based; settings: human
[9] = target: RAC-alpha serine/threonine-protein kinase (Homo sapiens) (UniProt P31749); assay: Decrease in phosphorylated Akt level in human MDA-MB-231 cells after 24 hrs by western blotting method; format: cell-based
RAC-alpha serine/threonine-protein kinase (Homo sapiens), sequence (P31749 whole entry): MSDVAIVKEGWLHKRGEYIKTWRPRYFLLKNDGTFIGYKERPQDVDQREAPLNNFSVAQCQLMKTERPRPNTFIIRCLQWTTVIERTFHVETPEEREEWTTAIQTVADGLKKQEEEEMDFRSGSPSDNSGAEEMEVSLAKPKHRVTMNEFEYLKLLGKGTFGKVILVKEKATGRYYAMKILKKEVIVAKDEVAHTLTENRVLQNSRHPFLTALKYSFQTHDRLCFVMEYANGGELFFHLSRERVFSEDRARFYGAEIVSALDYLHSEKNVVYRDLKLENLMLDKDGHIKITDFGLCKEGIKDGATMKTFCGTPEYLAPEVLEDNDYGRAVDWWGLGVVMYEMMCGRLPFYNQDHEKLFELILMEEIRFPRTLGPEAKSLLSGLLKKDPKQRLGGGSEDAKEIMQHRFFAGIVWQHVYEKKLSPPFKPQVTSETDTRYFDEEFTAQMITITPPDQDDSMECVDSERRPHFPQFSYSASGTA

inhibition [3]: Active
inhibition [9]: Active
SMILES: O=C(O[C@@H]1O[C@@H]2COC(=O)c3cc(O)c(O)c(O)c3-c3c(cc(O)c(O)c3O)C(=O)O[C@H]2[C@@H]2OC(=O)c3cc(O)c(O)c(O)c3-c3c(cc(O)c(O)c3O)C(=O)O[C@@H]12)c1cc(O)c(O)c(Oc2c(O)c(O)c(O)c3c2C(=O)O[C@H]2[C@@H]4OC(=O)c5cc(O)c(O)c(O)c5-c5c(cc(O)c(O)c5O)C(=O)O[C@H]4[C@@H](OC(=O)c4cc(O)c(O)c(O)c4)O[C@@H]2COC(=O)c2cc(O)c(O)c(O)c2-3)c1
inhibition (MDA-MB-231 [1]): Active
inhibition (MDA-MB-231 [2]): inactive
inhibition (INH) (HUVEC [4]): Dose-dependent effect
Activity (HUVEC [5]): 37.6%
inhibition (MDA-MB-231 [6]): Active
inhibition at 6.25 µM (HUVEC [7]): 41.5%
Activity (HUVEC [8]): Non-toxic
